In patent publication US20260130917A1, “ANTIVIRAL COMPOSITION FOR CORONAVIRUS OR INFLUENZA VIRUS, USING NATURAL PRODUCTS, AND USE THEREOF” (priority 2022, published 2026):

Tested on: SARS-CoV-2 variants: Ancestral (lineage A), Alpha (B.1.1.7), Beta (B.1.351), Gamma (P.1), Delta (B.1.617.2), Omicron (B.1.1.529)
Assay type: cell-based

CCCCCOc1cccc(/C=C/C23N=C(O)CCN2c2ccccc2C3(C)C)c1 (stereo not shown) [MolPort-005-980-235, 10,10-dimethyl-10a-[(1E)-2-[3-(pentyloxy)phenyl]ethenyl]-3H,4H,10H,10aH-pyrimido[1,2-a]indol-2-ol]
antiviral activity against SARS-CoV-2 variants: had antiviral activity against all verified SARS-CoV-2 variants, including Omicron, in a dose-dependent manner
